Results on two molecules are retold here after article PMC7617869, “Molecular glues that inhibit deubiquitylase activity and inflammatory signaling” (Nature Structural & Molecular Biology, 2025).

“And” between values parts separate entries of the source, which are not always exact repeats. Equal entries are not always repeated.

One test deals with T1, BRISC (FL) / BRISCΔNΔC (Homo sapiens, UniProt P46736+Q15018+Q9NXR7).
T1 construct: BRISCΔNΔC (MERIT40ΔN, Abraxas 2ΔC); made in house; host or cells: Spodoptera frugiperda Sf9 insect cells (MultiBac)
The test can be described thus: Mass photometry of BRISC dimer formation. The settings on record: for Dimer fraction: 50 nM BRISCΔNΔC. The protocol: Immediately before mass photometry measurement, the BRISC–inhibitor mix was diluted in 25 mM HEPES pH 7.5, 150 mM NaCl and 1 mM TCEP to 10 nM BRISC ([…]). Then, 12 μl of the diluted sample was used for the final mass photometry measurement, following autofocus stabilization. […] Next, 0.5 μl of inhibitor was mixed with 19.5 μl of 50 nM BRISCΔNΔC (2.5% v/v DMSO) and incubated at room temperature for 15 min. The BRISC–inhibitor mix was used directly for mass photometry measurement using buffer-free autofocus stabilization.
Microscope coverslips were prepared according to an established protocol. Experiments were performed using a OneMP mass photometer (Refeyn). Videos were recorded for 60 s using AcquireMP (Refeyn) and processed using DiscoverMP (Refeyn). Mass photometry image processing was previously described. Briefly, contrast-to-mass (C2M) calibration was performed using protein standards (66–669 kDa) diluted in buffer (25 mM HEPES pH 7.5, 150 mM NaCl and 1 mM TCEP). […] The mass distribution from each run was in the form of a histogram, where the count refers to each landing event and a Gaussian sum is fitted to the data. The relative amount of each species was calculated as the area of each Gaussian, where σ refers to the s.d. of the fitted Gaussian. The dimer fraction refers to the percentage of the total counts corresponding to the 564-kDa BRISCΔNΔC dimer complex. Curves and half-maximal effective concentration values were fitted and calculated using the GraphPad Prism (version 9.0) built-in dose–response equation for concentration of agonist versus response (variable slope).

The test system of test [1] is ISG expression in MCF10A Cas9 cells expressing BRCC45 WT. Description: MCF10A BRCC45 WT ISG expression (RT–qPCR). The settings on record: hIFNα2 75 ng/ml, 2.5 μM, 4 h. The format is cell-based, human. (Quantitative PCR measures a nucleic acid by following its amplification.)
The target in the next test is BRISC Abraxas2 T135K (Homo sapiens, UniProt P46736+Q15018+Q9NXR7, T135K). Description: BRISC mutant IQF assay: Abraxas2 T135K. Type of test: biochemical. The protocol:
(§1) IQF assays were performed in DUB reaction buffer containing 50 mM HEPES–NaOH pH 7.0, 100 mM NaCl, 0.1 mg ml^−1 BSA, 1 mM DTT and 0.03% v/v Brij-35. […] The final concentration of BRISC WT, all BRISC mutants, HsBRISCΔLoop, MmBRISC and DrBRISCΔNΔC was 1 nM. Other enzymes were tested at the following concentrations: 5 nM ARISC (FL), 10 nM CfBRISCΔNΔC, 250 nM AMSH* (ref. [43]), 500 nM USP2 and 1 μM trypsin (Sigma, 9002-07-7). For Michaelis–Menten experiments, 1 nM BRISC with 0–1 μM IQF K63-linked diubiquitin substrate was used. Michaelis–Menten analyses and Lineweaver–Burk plots were calculated using GraphPad Prism (version 9.0).
(§2) To assess enzymatic activity, BRISC complexes were diluted to concentrations between 1 nM and 50 nM. […] Then, 20-μl enzyme reactions were carried out in 384-well black flat-bottom low-flange plates (Corning, 35373). DUB activity was measured using IQF K63-linked diubiquitin (LifeSensors, DU6303) at 50 nM. Cleaved diubiquitin was monitored by measuring fluorescence intensity (excitation, 544 nm; emission, 575 nm; dichroic mirror, 560 nm). Fluorescence intensity was measured every minute for 30 min at 30 °C. Fluorescence intensity units were plotted against time to generate a linear reaction progress curve, where the initial velocity (V0) corresponds to the gradient of the curve (typically achieved within 15 min). IC50 values were calculated using the GraphPad Prism (version 9.0) built-in dose–response equation for inhibitor concentration versus response (variable slope).

Another test deals with BRISC BRCC45 D248R (Homo sapiens, UniProt P46736+Q15018+Q9NXR7, D248R). The test can be described thus: BRISC mutant IQF assay: BRCC45 D248R. Type of test: biochemical. On the procedure: as §1, §2
In a further test the target is HsBRISCΔLoop (Homo sapiens, UniProt P46736+Q15018+Q9NXR7, DEL184-208). Description: Mass photometry of HsBRISCΔLoop dimer formation. The settings on record: for Dimer fraction: HsBRISCΔLoop.
In another test the target is BRISC BRCC45 R137A+F140A (Homo sapiens, UniProt P46736+Q15018+Q9NXR7, F140A/R137A). Description: BRISC mutant IQF assay: BRCC45 R137A+F140A. Type of test: biochemical. On the procedure: as §1
To assess enzymatic activity, BRISC complexes were diluted to concentrations between 1 nM and 50 nM. […] DUB activity was measured using IQF K63-linked diubiquitin (LifeSensors, DU6303) at 50 nM. Cleaved diubiquitin was monitored by measuring fluorescence intensity (excitation, 544 nm; emission, 575 nm; dichroic mirror, 560 nm). Fluorescence intensity was measured every minute for 30 min at 30 °C. Fluorescence intensity units were plotted against time to generate a linear reaction progress curve, where the initial velocity (V0) corresponds to the gradient of the curve (typically achieved within 15 min). IC50 values were calculated using the GraphPad Prism (version 9.0) built-in dose–response equation for inhibitor concentration versus response (variable slope).

[2] abbreviates: FX-171-C 0.35 μM, read-out: Normalised V0.
The mark [3] stands for this setting: FX-171-C 0.035 μM, read-out: Normalised V0.

In the case of `O=C(NC1CCNCC1)c1nn(C(=O)c2c(Cl)cccc2Cl)cc1NC(=O)c1c(Cl)cccc1Cl` [JMS-175-2], the “dimer formation with increasing inhibitor concentration (mass photometry)” value on BRISC (FL) / BRISCΔNΔC is “dose-dependent increase in dimer formation”. In addition, the Dimer fraction was 0.32 and 0.27 and 0.22 on BRISC (FL) / BRISCΔNΔC ([Inhibitor (μM)] 5000); 0.35 and 0.32 and 0.21 on BRISC (FL) / BRISCΔNΔC ([Inhibitor (μM)] 10000). Besides, the “ISG expression (ISG15, IFIT1, IFIT2, IFITM1, CXCL10)” value in test [1] was “reduced gene expression for all five ISGs”.

In general, IC50 refers to the concentration that gives 50% inhibition. For the molecule `O=C(NC1C2CNCC21)c1nn(C(=O)c2c(Cl)cccc2Cl)cc1NC(=O)c1c(Cl)cccc1Cl` (stereo not shown) [FX-171-C], the IC50 against BRISC Abraxas2 T135K is 1.5 µM; on BRISC BRCC45 D248R, greater than 100 µM; on BRISC BRCC45 R137A+F140A, 52 µM. The “inhibitor sensitivity vs BRISC WT” value against BRISC Abraxas2 T135K is recorded as “moderate to little effect on inhibitor sensitivity”; against BRISC BRCC45 D248R, “reduced sensitivity to inhibition”. Besides, the values for the remaining activity at 0.35 µM at BRISC Abraxas2 T135K (setting [2]) and at BRISC BRCC45 D248R (setting [2]) were 73.4% and 91.7%, respectively. In addition, on BRISC Abraxas2 T135K (FX-171-C 3.1 μM, read-out: Normalised V0), the remaining activity at 3.1 µM was 20.9%. For the same molecule, the “dimer formation with increasing inhibitor concentration (mass photometry)” value at BRISC (FL) / BRISCΔNΔC was “dose-dependent increase in dimer formation”. Further, the Dimer fraction was 0.36 and 0.38 and 0.35 on BRISC (FL) / BRISCΔNΔC ([Inhibitor (μM)] 2500); 0.31 and 0.43 and 0.4 at BRISC (FL) / BRISCΔNΔC ([Inhibitor (μM)] 10000); 0 on HsBRISCΔLoop ([FX-171-C (μM)] 20); 0 at HsBRISCΔLoop ([FX-171-C (μM)] 40); 0 on HsBRISCΔLoop ([FX-171-C (μM)] 80); 0 at HsBRISCΔLoop ([FX-171-C (μM)] 156). Further, the Dimer fraction is 0 on HsBRISCΔLoop ([FX-171-C (μM)] 312.5); 0.11 and 0.07 at HsBRISCΔLoop ([FX-171-C (μM)] 2500); 0.16 and 0.15 and 0.14 at HsBRISCΔLoop ([FX-171-C (μM)] 5000); 0.23 and 0.22 and 0.14 at HsBRISCΔLoop ([FX-171-C (μM)] 10000). The remaining activity at 0.0035 µM on BRISC BRCC45 D248R (FX-171-C 0.0035 μM, read-out: Normalised V0) came to 91.7%. Moreover, the remaining activity at 0.035 µM on BRISC BRCC45 D248R (setting [3]) was determined as 97.4%; on BRISC BRCC45 R137A+F140A (setting [3]) it was 79.9%. On HsBRISCΔLoop (mass photometry and negative-stain EM), the “dimer formation of human BRISCΔLoop on inhibitor addition” value is listed as “fewer dimers”. Also, the “ISG expression (ISG15, IFIT1, IFIT2, IFITM1, CXCL10)” value in test [1] is reported as “reduced gene expression for all five ISGs”.
